Measured values from US20240381872A1, “SUBSTITUTED 2,3-DIHYDRO[1,3]THIAZOLO[4,5-B]PYRIDINES, SALTS THEREOF AND THEIR USE AS HERBICIDALLY ACTIVE SUBSTANCES” (BAYER AKTIENGESELLSCHAFT, priority 2021, published 2024).

How the values were obtained:
Format in all cases: in vivo
[1] = tested on: Matricaria inodora (MATIN); experiment: Herbicidal pre-emergence action, section C (Table C6); settings: visual grading after ca. 3 weeks; for pest or weed control at 320 g/ha: Tripleurospermum inodorum, pre-emergence, 504 h, read-out: pre-emergence activity against MATIN in %
Text: (§1) Seeds of mono- and dicotyledonous weed plants and crop plants were sown, in plastic or organic planting pots, in sandy loam and covered with soil. The compounds according to the invention, formulated in the form of wettable powders (WP) or as emulsifiable concentrates (EC), were applied to the surface of the covering soil as aqueous suspension or emulsion, with the addition of 0.5% of an additive, at an application rate of 600 l of water/ha (converted). Following treatment, the pots were placed in a greenhouse and kept under optimum growth conditions for the test plants. The visual grading of the damage to the test plants was carried out after ca. 3 weeks in comparison to untreated controls (herbicidal effect in percent (%): 100% effect=plants have died off, 0% effect=as control plants).

[2] = tested on: Abutilon theophrasti (ABUTH); experiment: Herbicidal pre-emergence action, section A (Table A1); settings: visual grading after ca. 3 weeks vs untreated controls
Text: as §1, with “plants” for “plants and crop plants”, “sown” for “sown,”, “pots (double sowings with one species of mono- and one species of dicotyledonous weed plants per pot),” for “or organic planting pots,”, “loam,” for “loam”, “water per hectare” for “water/ha”

[3] = tested on: Digitaria sanguinalis (DIGSA); experiment: Herbicidal pre-emergence action, section C (Table C12); settings: visual grading after ca. 3 weeks; for pest or weed control at 320 g/ha / pest or weed control at 80 g/ha: Digitaria sanguinalis, pre-emergence, 504 h, read-out: pre-emergence activity against DIGSA in %
Summary of the method: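 Compounds applied as aqueous WP or EC preparations (0.5% additive, 600 l water/ha) onto soil covering freshly sown seeds in sandy loam. Herbicidal effect is visually estimated % damage after about 3 weeks, where 100% means plants died off and 0% matches controls.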

Lolium rigidum (LOLRI) = experiment: Herbicidal post-emergence action, section B (Table B5); settings: visual rating about 3 weeks after treatment vs untreated controls; for pest or weed control at 1280 g/ha: Lolium rigidum, post-emergence, 504 h, read-out: post-emergence activity against LOLRI in %
Protocol: Seeds of mono- and dicotyledonous weed plants were placed in plastic pots in sandy loam soil (doubly sown with in each case one species of mono- or dicotyledonous weed plants per pot), covered with soil and cultivated in a greenhouse under controlled growth conditions. 2 to 3 weeks after sowing, the test plants were treated at the one-leaf stage. The compounds of the invention, formulated in the form of wettable powders (WP) or as emulsion concentrates (EC), were applied onto the green parts of the plants as aqueous suspension or emulsion with addition of 0.5% additive at a water application rate of 600 liters per hectare (converted). After the test plants had been kept in the greenhouse under optimum growth conditions for about 3 weeks, the activity of the preparations was rated visually in comparison to untreated controls. For example, 100% activity=the plants have died, 0% activity=like control plants.

[4] = tested on: Amaranthus retroflexus (AMARE); experiment: Herbicidal post-emergence action, section B (Table B11); settings: visual rating about 3 weeks after treatment vs untreated controls; for pest or weed control at 320 g/ha / pest or weed control at 1280 g/ha: Amaranthus retroflexus, post-emergence, 504 h, read-out: post-emergence activity against AMARE in %
Summary of the method: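 Weeds were sown in sandy loam and grown in a greenhouse, then sprayed at the one-leaf stage 2 to 3 weeks after sowing. Compounds, formulated as WP or EC, went on as aqueous suspension or emulsion with 0.5% additive at 600 liters per hectare. Visual rating after about 3 weeks against untreated controls (100% = plants dead, 0% = like controls).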

[5] = tested on: Alopecurus myosuroides (ALOMY); experiment: Herbicidal post-emergence action, section E (Table E2); settings: application rate 320 g/ha, assessed visually after ca. 3 weeks; for pest or weed control at 320 g/ha: Alopecurus myosuroides, post-emergence, 504 h, read-out: post-emergence activity against ALOMY in %
Text: (§2) Seeds of mono- and dicotyledonous weed plants and crop plants were sown, in plastic or organic planting pots, in sandy loam, covered with soil and grown in a greenhouse under controlled growth conditions. 2 to 3 weeks after sowing, the test plants were sprayed in the single-leaf stage. The compounds according to the invention, formulated in form of wettable powders (WP) or as emulsifiable concentrates (EC), were sprayed onto the green plant parts as aqueous suspension or emulsion, with the addition of 0.5% of an additive, at an application rate of 600 l of water/ha (converted). The test plants were placed in the greenhouse for ca. 3 weeks under optimum growth conditions, and then the effect of the preparations was assessed visually in comparison with untreated controls (herbicidal effect in percent (%): 100% effect=plants have died off, 0% effect=as control plants).

Oryza sativa (ORYZA) = experiment: Post-emergence effects on crop plants, section F (Table F3)
Text: as §2, with “plants). Tables F1 to F4 below show the effects of selected compounds of the general formula (I) according to Table 1 on various crop plants and an application rate corresponding to 320 g/ha or below obtained by the experimental procedure mentioned above.” for “plants).”

Zea mays (ZEAMX) = experiment: Post-emergence effects on crop plants, section F (Table F1); settings: for post-emergence activity against ZEAMX in %: crop plant damage
Summary of the method: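 Post-emergence greenhouse test: crops grown 2 to 3 weeks in sandy loam, sprayed at 320 g/ha or less in 600 l water/ha with 0.5% additive. Injury rated visually as percent relative to controls roughly three weeks later.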

[6] = Oryza sativa, 504 h, application rate 320 g/ha, read-out: post-emergence activity against ORYZA in %
[7] = Abutilon theophrasti, pre-emergence, 504 h, application rate 1280 g/ha, read-out: pre-emergence activity against ABUTH in %
[8] = Zea mays, 504 h, application rate 320 g/ha, read-out: post-emergence activity against ZEAMX in %

## COC(=O)CCC(=O)N1CSc2cc(C)c(-c3ccccc3F)nc21 [Example I-010]
[1]; application rate 320 g/ha
  pre-emergence activity against MATIN in %: 90%
[2]; application rate 1280 g/ha
  pre-emergence activity against ABUTH in %: 90%
[3]; application rate 80 g/ha
  pre-emergence activity against DIGSA in %: 100%
Lolium rigidum (LOLRI); application rate 1280 g/ha
  post-emergence activity against LOLRI in %: 90%
[4]; application rate 320 g/ha
  post-emergence activity against AMARE in %: 90%
[5]
  post-emergence activity against ALOMY in %: 80%

## BN1CSc2cc(Br)c(-c3ccccc3C)nc21 [Example I-011]
Oryza sativa (ORYZA); crop plant damage, application rate 320 g/ha
  post-emergence activity against ORYZA in %: 0%
[3]; application rate 320 g/ha
  pre-emergence activity against DIGSA in %: 100%
[4]; application rate 1280 g/ha
  post-emergence activity against AMARE in %: 90%
Zea mays (ZEAMX); application rate 320 g/ha
  post-emergence activity against ZEAMX in %: 0%

## Clc1ccccc1-c1nc2c(cc1Br)SCN2 [Example I-041, 6-bromo-5-(2-chlorophenyl)-2,3-dihydro[1,3]thiazolo[4,5-b]pyridine]
Oryza sativa (ORYZA); [6]
  percent crop plant damage at 320 g/ha: 0%
[2]; [7]
  pest or weed control at 1280 g/ha: 90%
[3]; application rate 320 g/ha
  pest or weed control at 320 g/ha: 100%
Lolium rigidum (LOLRI); application rate 1280 g/ha
  pest or weed control at 1280 g/ha: 90%
[4]; application rate 320 g/ha
  pest or weed control at 320 g/ha: 90%
Zea mays (ZEAMX); [8]
  percent crop plant damage (phytotoxicity) on Zea mays, post-emergence at 320 g/ha: 20%

## CCc1ccccc1-c1nc2c(cc1C)[S+]([O-])CN2 (centres unmarked) [Example I-047]
Oryza sativa (ORYZA); [6]
  percent crop plant damage at 320 g/ha: 0%
[3]; application rate 80 g/ha
  pest or weed control at 80 g/ha: 90%
[4]; application rate 320 g/ha
  pest or weed control at 320 g/ha: 90%
Zea mays (ZEAMX); [8]
  percent crop plant damage (phytotoxicity) on Zea mays, post-emergence at 320 g/ha: 0%

## CC(=O)N1CSc2cc(Br)c(-c3ccccc3Cl)nc21 [Example I-055, 1-[6-bromo-5-(2-chlorophenyl)[1,3]thiazolo[4,5-b]pyridin-3(2H)-yl]ethanone]
Oryza sativa (ORYZA); [6]
  percent crop plant damage at 320 g/ha: 0%
[2]; [7]
  pest or weed control at 1280 g/ha: 90%
[3]; application rate 80 g/ha
  pest or weed control at 80 g/ha: 90%
[4]; application rate 320 g/ha
  pest or weed control at 320 g/ha: 90%
Zea mays (ZEAMX); [8]
  percent crop plant damage (phytotoxicity) on Zea mays, post-emergence at 320 g/ha: 0%

## CC(C)C(=O)N1C[S+]([O-])c2cc(Br)c(-c3ccccc3)nc21 (centres unmarked) [Example I-067]
[1]; application rate 320 g/ha
  pest or weed control at 320 g/ha: 80%
Oryza sativa (ORYZA); [6]
  percent crop plant damage at 320 g/ha: 0%
[3]; application rate 320 g/ha
  pest or weed control at 320 g/ha: 100%
Zea mays (ZEAMX); [8]
  percent crop plant damage (phytotoxicity) on Zea mays, post-emergence at 320 g/ha: 0%

## CCS(=O)(=O)N1C[S+]([O-])c2cc(C)c(-c3ccccc3C)nc21 (centres unmarked) [Example I-074]
Oryza sativa (ORYZA); Oryza sativa, 504 h, application rate 80 g/ha, read-out: post-emergence activity against ORYZA in %
  percent crop plant damage at 80 g/ha: 0%
[2]; [7]
  pest or weed control at 1280 g/ha: 90%
[3]; application rate 320 g/ha
  pest or weed control at 320 g/ha: 100%
[4]; application rate 1280 g/ha
  pest or weed control at 1280 g/ha: 90%
[5]
  pest or weed control at 320 g/ha: 90%

## Cc1cc2c(nc1-c1ccccc1)N(C(=O)C1(C)CC(Cl)=NO1)CS2 (centres unmarked) [Example I-088]
[1]; application rate 320 g/ha
  pre-emergence activity against MATIN in %: 90%
[3]; application rate 320 g/ha
  pre-emergence activity against DIGSA in %: 100%
Lolium rigidum (LOLRI); application rate 1280 g/ha
  post-emergence activity against LOLRI in %: 90%
[4]; application rate 320 g/ha
  post-emergence activity against AMARE in %: 90%
Zea mays (ZEAMX); application rate 320 g/ha
  post-emergence activity against ZEAMX in %: 0%

## Cc1cc2c(nc1-c1ccccc1F)N(C(=O)C13CCCC1C(Cl)=NO3)CS2 (centres unmarked) [Example I-104]
[1]; application rate 800 g/ha (so in the source)
  pre-emergence activity against MATIN in %: 90%
[2]; application rate 1280 g/ha
  pre-emergence activity against ABUTH in %: 90%
[3]; application rate 80 g/ha
  pre-emergence activity against DIGSA in %: 100%
Lolium rigidum (LOLRI); application rate 320 g/ha
  post-emergence activity against LOLRI in %: 90%
[4]; application rate 320 g/ha
  post-emergence activity against AMARE in %: 90%
Zea mays (ZEAMX); application rate 80 g/ha
  post-emergence activity against ZEAMX in %: 20%
[5]
  post-emergence activity against ALOMY in %: 80%

## Cc1cc2c(nc1-c1cccc(C)c1F)NCS2 [Example I-113]
[3]; application rate 320 g/ha
  pre-emergence activity against DIGSA in %: 100%
Lolium rigidum (LOLRI); application rate 1280 g/ha
  post-emergence activity against LOLRI in %: 90%
Zea mays (ZEAMX); application rate 320 g/ha
  post-emergence activity against ZEAMX in %: 0%

## CCOCCS(=O)(=O)N1C[S+]([O-])c2cc(C)c(-c3ccccc3F)nc21 (centres unmarked) [Example I-127]
[1]; application rate 320 g/ha
  pest or weed control at 320 g/ha: 90%
[3]; application rate 80 g/ha
  pest or weed control at 80 g/ha: 100%
Lolium rigidum (LOLRI); application rate 1280 g/ha
  pest or weed control at 1280 g/ha: 90%
[4]; application rate 320 g/ha
  pest or weed control at 320 g/ha: 90%
Zea mays (ZEAMX); Zea mays, 504 h, application rate 80 g/ha, read-out: post-emergence activity against ZEAMX in %
  percent crop plant damage (phytotoxicity) on Zea mays, post-emergence at 80 g/ha: 20%
[5]
  pest or weed control at 320 g/ha: 90%

## Cc1ccccc1-c1nc2c(cc1C)SCN2C(=O)C1(C)CC(Cl)=NO1 (centres unmarked) [Example I-137]
[1]; application rate 320 g/ha
  pre-emergence activity against MATIN in %: 90%
[2]; application rate 1280 g/ha
  pre-emergence activity against ABUTH in %: 100%
[3]; application rate 320 g/ha
  pre-emergence activity against DIGSA in %: 100%
[4]; application rate 320 g/ha
  post-emergence activity against AMARE in %: 90%
Zea mays (ZEAMX); application rate 80 g/ha
  post-emergence activity against ZEAMX in %: 0%
[5]
  post-emergence activity against ALOMY in %: 80%

## CC1(C(=O)N2CSc3cc(Br)c(-c4ccccc4)nc32)CC(Cl)=NO1 (centres unmarked) [Example I-139]
[1]; application rate 320 g/ha
  pre-emergence activity against MATIN in %: 80%
[2]; application rate 320 g/ha
  pre-emergence activity against ABUTH in %: 90%
[3]; application rate 320 g/ha
  pre-emergence activity against DIGSA in %: 100%
[4]; application rate 320 g/ha
  post-emergence activity against AMARE in %: 90%
Zea mays (ZEAMX); application rate 320 g/ha
  post-emergence activity against ZEAMX in %: 0%
[5]
  post-emergence activity against ALOMY in %: 80%

## CC1(C(=O)N2CSc3cc(Br)c(-c4ccccc4Cl)nc32)CC(Cl)=NO1 (centres unmarked) [Example I-141, [6-bromo-5-(2-chlorophenyl)[1,3]thiazolo[4,5-b]pyridin-3(2H)-yl](3-chloro-5-methyl-4,5-dihydro-1,2-oxazol-5-yl)methanone]
[2]; Abutilon theophrasti, pre-emergence, 504 h, application rate 320 g/ha, read-out: pre-emergence activity against ABUTH in %
  pest or weed control at 320 g/ha: 100%
[3]; application rate 320 g/ha
  pest or weed control at 320 g/ha: 90%
[4]; application rate 1280 g/ha
  pest or weed control at 1280 g/ha: 90%
Zea mays (ZEAMX); [8]
  percent crop plant damage (phytotoxicity) on Zea mays, post-emergence at 320 g/ha: 0%
